Source: paper PMC5218480 (PLoS ONE, 2017)

Test system: MV-4-11 cells
Assay: Gene expression microarray analysis (Affymetrix PrimeView) and GSEA
Type: cell-based, human
Parameters: RFU PODN (11730768_x_at) / Fold change /veh PODN (11730768_x_at) / RFU LINC00158 (11744669_a_at) / Fold change /veh LINC00158 (11744669_a_at) / RFU DUSP10 (11751237_a_at) / Fold change /veh DUSP10 (11751237_a_at) / RFU ID3 (11757404_x_at) / Fold change /veh ID3 (11757404_x_at) / RFU PLEKHG5 (11737974_s_at) / Fold change /veh PLEKHG5 (11737974_s_at) / RFU LRRC4B (11730491_at) / Fold change /veh LRRC4B (11730491_at) / RFU GIMAP4 (11747438_a_at) / Fold change /veh GIMAP4 (11747438_a_at) / RFU KRT8 (11758183_x_at) / Fold change /veh KRT8 (11758183_x_at) / RFU CNN1 (11734310_a_at) / Fold change /veh CNN1 (11734310_a_at) / RFU VPS37D (11726825_at) / Fold change /veh VPS37D (11726825_at) / RFU C10orf10 (11716522_x_at) / Fold change /veh C10orf10 (11716522_x_at) / RFU KIR2DL2 /// KIR2DL4 /// KIR2DL5A /// KIR2DL5B /// KIR2DS1 /// KIR2DS2 /// KIR2DS3 /// KIR2DS4 /// KIR3DL3 /// KIR3DL3 /// KIR3DS1 (11738374_at) / Fold change /veh KIR2DL2 /// KIR2DL4 /// KIR2DL5A /// KIR2DL5B /// KIR2DS1 /// KIR2DS2 /// KIR2DS3 /// KIR2DS4 /// KIR3DL3 /// KIR3DL3 /// KIR3DS1 (11738374_at) / RFU C1QL1 (11718748_at) / Fold change /veh C1QL1 (11718748_at) / RFU TMPRSS4 (11747572_a_at) / Fold change /veh TMPRSS4 (11747572_a_at) / RFU HAMP (11756126_x_at) / Fold change /veh HAMP (11756126_x_at) / RFU RNFT2 (11725882_a_at) / Fold change /veh RNFT2 (11725882_a_at) / RFU NR4A2 (11747474_a_at) / Fold change /veh NR4A2 (11747474_a_at) / RFU ABCC12 (11746883_a_at) / Fold change /veh ABCC12 (11746883_a_at) / RFU TMEM136 (11760407_x_at) / Fold change /veh TMEM136 (11760407_x_at) / RFU CLDN22 /// WWC2 (11732394_at) / Fold change /veh CLDN22 /// WWC2 (11732394_at) / RFU HLA-DPB1 (11760878_x_at) / Fold change /veh HLA-DPB1 (11760878_x_at) / RFU SPINT1 (11716480_a_at) / Fold change /veh SPINT1 (11716480_a_at) / RFU GAP43 (11754022_s_at) / Fold change /veh GAP43 (11754022_s_at) / RFU A4GNT (11735810_at) / Fold change /veh A4GNT (11735810_at) / RFU PRB3 (11715151_x_at) / Fold change /veh PRB3 (11715151_x_at) / RFU TUBB4B (11761932_at) / Fold change /veh TUBB4B (11761932_at) / RFU CAPN14 (11732068_a_at) / Fold change /veh CAPN14 (11732068_a_at) / RFU TMCC2 (11721928_a_at) / Fold change /veh TMCC2 (11721928_a_at) / RFU IRGQ (11745062_a_at) / Fold change /veh IRGQ (11745062_a_at) / RFU FAM174B (11720279_a_at) / Fold change /veh FAM174B (11720279_a_at) / RFU TMPRSS4 (11748680_a_at) / Fold change /veh TMPRSS4 (11748680_a_at) / RFU FAM212B (11763350_a_at) / Fold change /veh FAM212B (11763350_a_at) / RFU PLEKHG5 (11743358_a_at) / Fold change /veh PLEKHG5 (11743358_a_at) / RFU ZSCAN30 (11745921_a_at) / Fold change /veh ZSCAN30 (11745921_a_at) / RFU CMKLR1 (11741424_a_at) / Fold change /veh CMKLR1 (11741424_a_at) / RFU LOC101060620 /// MAPK8IP1 (11723275_at) / Fold change /veh LOC101060620 /// MAPK8IP1 (11723275_at) / RFU SPTSSB (11747773_x_at) / Fold change /veh SPTSSB (11747773_x_at) / RFU PRSS12 (11739890_at) / Fold change /veh PRSS12 (11739890_at) / RFU BIN1 (11741810_x_at) / Fold change /veh BIN1 (11741810_x_at) / RFU WNT11 (11732464_a_at) / Fold change /veh WNT11 (11732464_a_at) / RFU C10orf10 (11716521_a_at) / Fold change /veh C10orf10 (11716521_a_at) / RFU C5orf56 (11738089_at) / Fold change /veh C5orf56 (11738089_at) / RFU CYB561 (11721691_x_at) / Fold change /veh CYB561 (11721691_x_at) / RFU ANKRD19P (11752326_a_at) / Fold change /veh ANKRD19P (11752326_a_at) / RFU OR2T12 /// OR2T33 /// OR2T8 (11738714_s_at) / Fold change /veh OR2T12 /// OR2T33 /// OR2T8 (11738714_s_at) / RFU VCAN (11748164_a_at) / Fold change /veh VCAN (11748164_a_at) / RFU JSRP1 (11732532_at) / Fold change /veh JSRP1 (11732532_at) / RFU KRTAP10-11 (11738290_x_at) / Fold change /veh KRTAP10-11 (11738290_x_at) / RFU MYO3A (11730013_a_at) / Fold change /veh MYO3A (11730013_a_at) / RFU EBF3 (11725865_a_at) / Fold change /veh EBF3 (11725865_a_at) / RFU CAMK2N1 (11719241_x_at) / Fold change /veh CAMK2N1 (11719241_x_at) / RFU C5orf56 (11738088_a_at) / Fold change /veh C5orf56 (11738088_a_at) / RFU OLFML3 (11715873_a_at) / Fold change /veh OLFML3 (11715873_a_at) / RFU LOC100653217 /// NTM (11731650_a_at) / Fold change /veh LOC100653217 /// NTM (11731650_a_at) / RFU MAPK11 (11762145_a_at) / Fold change /veh MAPK11 (11762145_a_at) / RFU FIZ1 (11724087_x_at) / Fold change /veh FIZ1 (11724087_x_at) / RFU OASL (11726364_x_at) / Fold change /veh OASL (11726364_x_at) / RFU SOX15 (11748057_x_at) / Fold change /veh SOX15 (11748057_x_at) / RFU CD79A (11719716_a_at) / Fold change /veh CD79A (11719716_a_at) / RFU HIST1H1D (11736915_at) / Fold change /veh HIST1H1D (11736915_at) / RFU CASKIN2 (11723855_a_at) / Fold change /veh CASKIN2 (11723855_a_at) / RFU LOC730098 (11760151_x_at) / Fold change /veh LOC730098 (11760151_x_at) / RFU OR4N2 (11742367_at) / Fold change /veh OR4N2 (11742367_at) / RFU PRRT2 (11749266_a_at) / Fold change /veh PRRT2 (11749266_a_at) / RFU SNX32 (11753110_a_at) / Fold change /veh SNX32 (11753110_a_at) / RFU CDHR5 (11726645_a_at) / Fold change /veh CDHR5 (11726645_a_at) / RFU RCAN1 (11760418_a_at) / Fold change /veh RCAN1 (11760418_a_at) / RFU FAM167A (11723789_a_at) / Fold change /veh FAM167A (11723789_a_at) / RFU FAM26E (11764081_at) / Fold change /veh FAM26E (11764081_at) / RFU ISYNA1 (11749810_s_at) / Fold change /veh ISYNA1 (11749810_s_at) / RFU ACY1 (11761880_at) / Fold change /veh ACY1 (11761880_at) / RFU 11764098_at / Fold change /veh 11764098_at / RFU SAMD14 (11745864_x_at) / Fold change /veh SAMD14 (11745864_x_at) / RFU NPB (11741838_a_at) / Fold change /veh NPB (11741838_a_at) / RFU TMPRSS6 (11731388_a_at) / Fold change /veh TMPRSS6 (11731388_a_at) / RFU KRTAP10-2 (11738614_at) / Fold change /veh KRTAP10-2 (11738614_at) / RFU ARHGAP8 /// PRR5-ARHGAP8 (11727945_x_at) / Fold change /veh ARHGAP8 /// PRR5-ARHGAP8 (11727945_x_at) / RFU KRTAP5-7 /// NADSYN1 (11734609_at) / Fold change /veh KRTAP5-7 /// NADSYN1 (11734609_at) / RFU RASL12 (11751679_a_at) / Fold change /veh RASL12 (11751679_a_at) / RFU CDKN2B (11736163_a_at) / Fold change /veh CDKN2B (11736163_a_at) / RFU PRF1 (11729649_at) / Fold change /veh PRF1 (11729649_at) / RFU, ZNF638 /// ZNF638-IT1 / Fold change vs veh, ZNF638 /// ZNF638-IT1 / RFU, PANK3 / Fold change vs veh, PANK3 / RFU, SH3YL1 / Fold change vs veh, SH3YL1 / RFU, ZEB2 / Fold change vs veh, ZEB2 / RFU, NRIP1 / Fold change vs veh, NRIP1 / RFU, PTTG1IP / Fold change vs veh, PTTG1IP / RFU, CAPN2 / Fold change vs veh, CAPN2 / RFU, MED14 / Fold change vs veh, MED14 / RFU, SNORA58 / Fold change vs veh, SNORA58 / RFU, C1orf63 / Fold change vs veh, C1orf63 / RFU, LRRFIP1 / Fold change vs veh, LRRFIP1 / RFU, NDUFAF7 / Fold change vs veh, NDUFAF7 / RFU, SLC12A2 / Fold change vs veh, SLC12A2 / RFU, IBTK / Fold change vs veh, IBTK / RFU, ESF1 / Fold change vs veh, ESF1 / Fold change vs veh, TMEM50B / RFU, TAOK1 / Fold change vs veh, TAOK1 / RFU, ACBD3 / Fold change vs veh, ACBD3 / RFU, TMA16 / Fold change vs veh, TMA16 / RFU, RWDD3 / Fold change vs veh, RWDD3 / RFU, BCAT1 / Fold change vs veh, BCAT1 / RFU, EDEM3 / Fold change vs veh, EDEM3 / RFU, TMEM33 / Fold change vs veh, TMEM33 / RFU, WDR75 / Fold change vs veh, WDR75 / RFU, AHCTF1 / Fold change vs veh, AHCTF1 / RFU, TFRC / Fold change vs veh, TFRC / RFU, ZDHHC17 / Fold change vs veh, ZDHHC17 / RFU, NOM1 / Fold change vs veh, NOM1 / RFU, ARL8B / Fold change vs veh, ARL8B / RFU, ZBTB11 / Fold change vs veh, ZBTB11 / RFU, TAMM41 / Fold change vs veh, TAMM41 / RFU, KIAA1704 /// LOC100996395 / Fold change vs veh, KIAA1704 /// LOC100996395 / RFU, ING1 / Fold change vs veh, ING1 / RFU, TRMT61B / Fold change vs veh, TRMT61B / RFU, FUBP3 / Fold change vs veh, FUBP3 / RFU, TP53 / Fold change vs veh, TP53 / RFU, TNKS2 / Fold change vs veh, TNKS2 / RFU, ZFP14 / Fold change vs veh, ZFP14 / RFU, ACTR2 / Fold change vs veh, ACTR2 / RFU, PPP3R1 / Fold change vs veh, PPP3R1 / RFU, PIK3R1 / Fold change vs veh, PIK3R1 / RFU, HNRNPA1 / Fold change vs veh, HNRNPA1 / RFU, RNF170 / Fold change vs veh, RNF170 / RFU, ZNF28 / Fold change vs veh, ZNF28 / RFU, RNGTT / Fold change vs veh, RNGTT / RFU, OGT / Fold change vs veh, OGT / RFU, BRD1 / Fold change vs veh, BRD1 / RFU, MARS / Fold change vs veh, MARS / RFU, ZNF655 / Fold change vs veh, ZNF655 / RFU, FAHD1 / Fold change vs veh, FAHD1 / RFU, BDP1 / Fold change vs veh, BDP1 / RFU, LRRCC1 / Fold change vs veh, LRRCC1 / RFU, ARID1A / Fold change vs veh, ARID1A / RFU, ZNF146 / Fold change vs veh, ZNF146 / RFU, ZNF330 / Fold change vs veh, ZNF330 / RFU, GPN3 / Fold change vs veh, GPN3 / RFU, C9orf123 / Fold change vs veh, C9orf123 / RFU, N4BP2L2 / Fold change vs veh, N4BP2L2 / RFU, ARFIP1 / Fold change vs veh, ARFIP1 / RFU, FAM179B / Fold change vs veh, FAM179B / RFU, BCL10 / Fold change vs veh, BCL10 / RFU, UHRF1BP1L / Fold change vs veh, UHRF1BP1L / RFU, BET1 / Fold change vs veh, BET1 / RFU, CNOT2 / Fold change vs veh, CNOT2 / RFU, ZNF268 / Fold change vs veh, ZNF268 / Fold change vs veh, ZNF507 / RFU, DGCR2 / Fold change vs veh, DGCR2 / RFU, WDSUB1 / Fold change vs veh, WDSUB1 / Fold change vs veh, HSP90B1 /// MIR3652 / RFU, ADSS / Fold change vs veh, ADSS / RFU, GK / Fold change vs veh, GK / RFU, ZNF148 / Fold change vs veh, ZNF148 / RFU, TAF9 / Fold change vs veh, TAF9 / RFU, SLC1A5 / Fold change vs veh, SLC1A5 / RFU, SLMO2 / Fold change vs veh, SLMO2 / RFU, ABCC4 / Fold change vs veh, ABCC4 / RFU, LOC101060439 /// RAP1B / Fold change vs veh, LOC101060439 /// RAP1B / RFU, RFX7 / Fold change vs veh, RFX7 / RFU, GTPBP10 / Fold change vs veh, GTPBP10 / RFU, CNEP1R1 / Fold change vs veh, CNEP1R1 / RFU, BIVM-ERCC5 /// ERCC5 / Fold change vs veh, BIVM-ERCC5 /// ERCC5 / RFU, ILF3 / Fold change vs veh, ILF3 / RFU 11762660_at / Fold change /veh 11762660_at / RFU VCAN (11757783_s_at) / Fold change /veh VCAN (11757783_s_at) / RFU DDX43 (11728927_at) / Fold change /veh DDX43 (11728927_at) / RFU KRT8 (11758188_x_at) / Fold change /veh KRT8 (11758188_x_at) / RFU NKD1 (11759106_at) / Fold change /veh NKD1 (11759106_at) / RFU SRD5A1 (11742802_a_at) / Fold change /veh SRD5A1 (11742802_a_at) / RFU TPSAB1 /// TPSB2 (11721975_s_at) / Fold change /veh TPSAB1 /// TPSB2 (11721975_s_at) / RFU GSTM3 (11746129_a_at) / Fold change /veh GSTM3 (11746129_a_at) / RFU IL23R (11737362_x_at) / Fold change /veh IL23R (11737362_x_at) / RFU TMEM51 (11727254_a_at) / Fold change /veh TMEM51 (11727254_a_at) / RFU PIWIL2 (11732686_x_at) / Fold change /veh PIWIL2 (11732686_x_at) / RFU ORM1 (11744905_x_at) / Fold change /veh ORM1 (11744905_x_at) / RFU CCDC152 (11743942_at) / Fold change /veh CCDC152 (11743942_at) / RFU ECM1 (11717891_a_at) / Fold change /veh ECM1 (11717891_a_at) / RFU IL23R (11748794_a_at) / Fold change /veh IL23R (11748794_a_at) / RFU TNFAIP8L3 (11732012_x_at) / Fold change /veh TNFAIP8L3 (11732012_x_at) / RFU MBOAT4 (11741988_at) / Fold change /veh MBOAT4 (11741988_at) / RFU 11764193_at / Fold change /veh 11764193_at / RFU TMEM53 (11763286_at) / Fold change /veh TMEM53 (11763286_at) / RFU MAGEB2 (11727129_at) / Fold change /veh MAGEB2 (11727129_at) / RFU TMEM200A (11744735_a_at) / Fold change /veh TMEM200A (11744735_a_at) / RFU CCDC152 (11751479_a_at) / Fold change /veh CCDC152 (11751479_a_at) / RFU FAM211A (11726209_a_at) / Fold change /veh FAM211A (11726209_a_at) / RFU RGS16 (11746705_a_at) / Fold change /veh RGS16 (11746705_a_at) / RFU VCAN (11755009_s_at) / Fold change /veh VCAN (11755009_s_at) / RFU RHOB (11743442_s_at) / Fold change /veh RHOB (11743442_s_at) / RFU RGS16 (11720943_a_at) / Fold change /veh RGS16 (11720943_a_at) / RFU RGS16 (11720944_at) / Fold change /veh RGS16 (11720944_at) / RFU, VPS4B / Fold change vs veh, VPS4B / RFU, CREB1 / Fold change vs veh, CREB1 / RFU, DNAJC13 / Fold change vs veh, DNAJC13 / RFU, GNAQ / Fold change vs veh, GNAQ / RFU, CDK5R1 / Fold change vs veh, CDK5R1 / RFU, ZRANB3 / Fold change vs veh, ZRANB3 / RFU, CUL4A / Fold change vs veh, CUL4A / RFU, CCNY / Fold change vs veh, CCNY / RFU, UFL1 / Fold change vs veh, UFL1 / RFU, COG3 / Fold change vs veh, COG3 / RFU, DIAPH2 / Fold change vs veh, DIAPH2 / RFU, SKA2 / Fold change vs veh, SKA2 / RFU, AFF3 / Fold change vs veh, AFF3 / RFU, LMF1 / Fold change vs veh, LMF1 / RFU, IPO11 / Fold change vs veh, IPO11 / RFU, DFFB / Fold change vs veh, DFFB / RFU, FOXP1 / Fold change vs veh, FOXP1 / RFU, CARD8 / Fold change vs veh, CARD8 / RFU, STRN3 / Fold change vs veh, STRN3 / RFU, ADK / Fold change vs veh, ADK / RFU, RASSF2 / Fold change vs veh, RASSF2 / RFU, WIPF1 / Fold change vs veh, WIPF1 / RFU, LARP1B / Fold change vs veh, LARP1B / RFU, RASA1 / Fold change vs veh, RASA1 / RFU, RB1 / Fold change vs veh, RB1 / RFU, PPFIA1 / Fold change vs veh, PPFIA1 / RFU, MAT2A / Fold change vs veh, MAT2A / RFU, CCT5 / Fold change vs veh, CCT5 / RFU, WDR92 / Fold change vs veh, WDR92 / RFU, CUX1 / Fold change vs veh, CUX1 / RFU, TTC7A / Fold change vs veh, TTC7A / RFU, TMEM135 / Fold change vs veh, TMEM135 / RFU, DEPTOR / Fold change vs veh, DEPTOR / RFU, CPM / Fold change vs veh, CPM / RFU, DNAJB6 / Fold change vs veh, DNAJB6 / RFU, CACNA2D3 / Fold change vs veh, CACNA2D3 / RFU, DTX4 / Fold change vs veh, DTX4 / RFU, TFCP2 / Fold change vs veh, TFCP2 / RFU, GMCL1 /// GMCL1P1 / Fold change vs veh, GMCL1 /// GMCL1P1 / RFU, AEBP2 / Fold change vs veh, AEBP2 / RFU, SNHG1 /// SNORD22 /// SNORD25 /// SNORD26 /// SNORD27 /// SNORD28 /// SNORD29 /// SNORD31 / Fold change vs veh, SNHG1 /// SNORD22 /// SNORD25 /// SNORD26 /// SNORD27 /// SNORD28 /// SNORD29 /// SNORD31 / Fold change (Aza/veh), C12orf56 (ProbeSet 11735607_a_at) / Fold change (ACY-1035/veh), C12orf56 (ProbeSet 11735607_a_at) / Fold change (Aza/veh), FGFR1OP (ProbeSet 11751329_s_at) / Fold change (ACY-1035/veh), FGFR1OP (ProbeSet 11751329_s_at) / Fold change (Aza/veh), VPS36 (ProbeSet 11739960_a_at) / Fold change (ACY-1035/veh), VPS36 (ProbeSet 11739960_a_at) / RFU SYPL1 (11715823_x_at) / Fold change /veh SYPL1 (11715823_x_at) / RFU IGFBP7 (11715501_s_at) / Fold change /veh IGFBP7 (11715501_s_at) / RFU REEP3 (11722064_at) / Fold change /veh REEP3 (11722064_at) / RFU IGLL1 (11728026_x_at) / Fold change /veh IGLL1 (11728026_x_at): dose or concentration left out as unconfirmed
Conditions: MV-4-11 cells, 48 hours

## Nc1ccc(-c2cccs2)cc1NC(=O)c1ccc2c(c1)cc(C1CC1)n2CCN1CCOCC1 [ACY-1035]
  RFU GIMAP4 (11747438_a_at): 6.21 RFU
